Measurements as given in ChEMBL document CHEMBL1201862, “PubChem BioAssay data set” (2004).
Several values for one entry are separate records, joined by “and”; a condition that tells them apart may be missing. Identical values can stand only once. Activity calls are given as the source filed them.

Tests used:
Estrogen receptor = biological target: T1, Estrogen receptor (Homo sapiens, UniProt P03372); test: potentiators of ERα–SRC-1 coactivator binding, dose response, biochemical, TR-FRET, ERα LBD (AID 737)
T1 sequence (P03372 whole entry): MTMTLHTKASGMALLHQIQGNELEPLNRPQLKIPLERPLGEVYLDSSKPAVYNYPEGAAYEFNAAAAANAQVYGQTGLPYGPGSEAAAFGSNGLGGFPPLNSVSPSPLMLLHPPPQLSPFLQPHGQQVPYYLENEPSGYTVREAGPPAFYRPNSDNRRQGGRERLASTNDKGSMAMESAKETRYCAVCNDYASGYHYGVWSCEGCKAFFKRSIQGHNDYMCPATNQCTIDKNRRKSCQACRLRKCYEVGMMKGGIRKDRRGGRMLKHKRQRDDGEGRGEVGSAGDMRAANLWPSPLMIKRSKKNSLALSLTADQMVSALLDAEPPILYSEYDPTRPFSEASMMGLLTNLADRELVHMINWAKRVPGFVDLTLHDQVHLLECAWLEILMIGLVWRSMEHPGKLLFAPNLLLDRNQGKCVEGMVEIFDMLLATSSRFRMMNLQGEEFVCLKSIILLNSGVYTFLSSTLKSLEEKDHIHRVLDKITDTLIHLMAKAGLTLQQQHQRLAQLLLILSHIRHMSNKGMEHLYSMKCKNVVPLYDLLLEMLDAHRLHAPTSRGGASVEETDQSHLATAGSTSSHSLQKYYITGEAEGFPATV

Protein Tat = biological target: T2, Protein Tat (Human immunodeficiency virus type 1 group M subtype B (isolate HXB2)(HIV-1), UniProt P04608); type: functional;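 further: tat binding to TAR RNA read out by fluorescence polarization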
T2 sequence (P04608 whole entry): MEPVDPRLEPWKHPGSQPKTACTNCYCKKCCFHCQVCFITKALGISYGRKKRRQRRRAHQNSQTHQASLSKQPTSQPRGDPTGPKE

[1] = biological target: T3, Mannose-6-phosphate isomerase (Homo sapiens, UniProt P34949); test: inhibitors of human PMI, primary screen, biochemical, fluorescence intensity, coupled assay (AID 1209)
T3 sequence (P34949 whole entry): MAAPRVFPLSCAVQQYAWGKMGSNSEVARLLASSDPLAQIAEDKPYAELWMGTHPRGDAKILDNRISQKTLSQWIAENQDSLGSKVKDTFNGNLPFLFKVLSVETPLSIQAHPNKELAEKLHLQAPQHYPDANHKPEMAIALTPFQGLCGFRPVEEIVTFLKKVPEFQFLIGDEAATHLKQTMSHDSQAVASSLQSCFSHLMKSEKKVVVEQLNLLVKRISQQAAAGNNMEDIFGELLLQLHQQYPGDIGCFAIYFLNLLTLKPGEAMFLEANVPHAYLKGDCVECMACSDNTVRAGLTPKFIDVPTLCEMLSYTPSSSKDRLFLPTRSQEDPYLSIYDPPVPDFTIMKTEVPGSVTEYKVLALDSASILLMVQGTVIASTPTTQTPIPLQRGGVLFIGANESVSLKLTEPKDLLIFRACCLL

[2] = THP-1 cell cytotoxicity, dose response, cytotoxicity control for Vif-APOBEC3G degradation inhibitor project, THP-1 cells (AID 1117359); type: functional; details: Human immunodeficiency virus 1, THP-1
[3] = NIH-3T3 fibroblast cytotoxicity, dose response, cytotoxicity control, cell-based, fluorescence, Alamar Blue, secondary assay (AID 2327); type: functional;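 further: NIH-3T3 mouse fibroblasts cultured with fluconazole at 8 µg/mL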
[4] = biological target: Potassium voltage-gated channel subfamily KQT member 2 (Rattus norvegicus, UniProt O88943, W236L); test: KCNQ2 channel potentiators, dose response, mechanism study for KCNQ2 potentiator project, cell-based, automated electrophysiology (AID 2603); type: functional
[5] = biological target: Sphingosine 1-phosphate receptor 2 (Homo sapiens, UniProt O95136); test: Dose Response Cell Based Assay for Agonists of the S1P2 Receptor of Purchased Analogues. [Related pubchem assays: 729, 843, 854, 736 ]; type: functional
Bcl-2-like protein 10 [6] = biological target: T4, Bcl-2-like protein 10 (Homo sapiens, UniProt Q9HD36); test: Biochemical TR3 FP assay of Bcl-B inhibitor potency, EC50 (AID 1243); type: functional
T4 sequence (Q9HD36 whole entry): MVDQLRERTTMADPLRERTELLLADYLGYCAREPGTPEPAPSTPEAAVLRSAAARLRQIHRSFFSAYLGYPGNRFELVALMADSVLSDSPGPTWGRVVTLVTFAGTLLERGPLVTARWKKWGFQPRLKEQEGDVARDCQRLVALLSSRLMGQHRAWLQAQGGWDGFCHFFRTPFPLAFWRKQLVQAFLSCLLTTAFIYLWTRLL

NS3 = NS3 (Hepatitis C virus, UniProt A3EZJ3); test: HCV NS3 helicase inhibitor potency, dose response, biochemical, fluorescence polarization, ChemBridge library (AID 743264)
[7] = biological target: T5, Neuropeptide Y receptor type 2 (Homo sapiens, UniProt P49146); test: NPY-Y2 antagonist potency, selectivity check, dose response, counter-screen for NPY-Y1 antagonist project, cell-based (AID 1278); type: functional
[8] = biological target: Potassium voltage-gated channel subfamily KQT member 2 (Rattus norvegicus, UniProt O88943); test: KCNQ2 potassium channel inhibitors, dose response, cell-based, automated electrophysiology, set II, rat KCNQ2 (AID 588637); type: functional
[9] = biological target: T6, Neuropeptide Y receptor type 1 (Homo sapiens, UniProt P25929); test: NPY-Y1 receptor antagonist potency, dose response, cell-based (AID 1277); type: functional
Vero = test: cells; type: functional, cell-based; details: Chlorocebus sabaeus
[10] = HEp-2 cell cytotoxicity, dose response, cytotoxicity control for RSV inhibitor project, HTS (AID 2410); type: functional; details: human respiratory syncytial virus
[11] = Luminescence Cell-Based Dose Confirmation HTS to Identify Activators of 5'UTR Stem-Loop Driven Alpha-Synuclein mRNA Translation in H4 Neuroglioblastoma Cells. [Related pubchem assays: 1829 (Project Summary), 1814 (Primary HTS)]; type: functional
H4 = test: Luminescence Cell-Based Dose Response HTS to Identify Activators of 5'UTR Stem-Loop Driven Prion Protein mRNA Translation in H4 Neuroglioblastoma Cells. [Related pubchem assays: 1829 (Project Summary), 1814 (Primary HTS)]; type: functional; details: Homo sapiens
[12] = Luminescence Cell-Based Dose Response HTS to Identify Activators of Luciferase Translation or Activity in H4 […] Cells. [Related pubchem assays: 1829 (Project Summary), 1814 (Primary HTS)]; type: functional
[13] = biological target: T6, Neuropeptide Y receptor type 1; type: functional
[14] = biological target: T5, Neuropeptide Y receptor type 2; type: functional, cell-based
[15] = biological target: T7, Heat shock 70 kDa protein 1A (Homo sapiens, UniProt P0DMV8); test: Hsp70 inhibitors, biochemical, TR-FRET (AID 786)
Bcl-2-like protein 10 [16] = biological target: T4, Bcl-2-like protein 10; test: displacers of TR3 peptide from Bcl-B, primary screen, selectivity assay for Bfl-1 inhibitor project, biochemical, fluorescence polarization, FITC-TR3 peptide (AID 748);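 further: fluorescence polarization from a fluorescein-labelled TR3 peptide binding purified Bcl-B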
[17] = biological target: T8, Tyrosine-protein phosphatase non-receptor type 7 (Homo sapiens, UniProt P35236); test: redox-dependent HePTP inhibition, mechanism study, biochemical, fluorescence (AID 2068); type: functional
T8 sequence (P35236 whole entry): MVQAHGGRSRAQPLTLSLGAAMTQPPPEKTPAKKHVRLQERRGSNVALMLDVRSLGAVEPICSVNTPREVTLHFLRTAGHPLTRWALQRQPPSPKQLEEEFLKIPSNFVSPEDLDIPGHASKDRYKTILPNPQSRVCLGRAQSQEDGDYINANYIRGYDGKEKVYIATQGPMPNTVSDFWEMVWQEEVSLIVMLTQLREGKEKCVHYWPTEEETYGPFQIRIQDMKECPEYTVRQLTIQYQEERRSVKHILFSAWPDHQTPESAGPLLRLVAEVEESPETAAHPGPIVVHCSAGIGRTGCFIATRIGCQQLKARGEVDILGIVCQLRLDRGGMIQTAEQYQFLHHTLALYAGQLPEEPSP

[18] = biological target: T7, Heat shock 70 kDa protein 1A; test: Hsp70 inhibitors, probe displacement, primary screen, biochemical, fluorescence polarization (AID 583)
Leucine aminopeptidase = biological target: T9, Leucine aminopeptidase (Plasmodium falciparum 3D7, UniProt Q8IL11); test: P. falciparum M17LAP inhibitors, primary screen, biochemical, fluorogenic H-Leu-NHMec substrate, 1536-well (AID 1619); type: functional
T9 sequence (Q8IL11 whole entry): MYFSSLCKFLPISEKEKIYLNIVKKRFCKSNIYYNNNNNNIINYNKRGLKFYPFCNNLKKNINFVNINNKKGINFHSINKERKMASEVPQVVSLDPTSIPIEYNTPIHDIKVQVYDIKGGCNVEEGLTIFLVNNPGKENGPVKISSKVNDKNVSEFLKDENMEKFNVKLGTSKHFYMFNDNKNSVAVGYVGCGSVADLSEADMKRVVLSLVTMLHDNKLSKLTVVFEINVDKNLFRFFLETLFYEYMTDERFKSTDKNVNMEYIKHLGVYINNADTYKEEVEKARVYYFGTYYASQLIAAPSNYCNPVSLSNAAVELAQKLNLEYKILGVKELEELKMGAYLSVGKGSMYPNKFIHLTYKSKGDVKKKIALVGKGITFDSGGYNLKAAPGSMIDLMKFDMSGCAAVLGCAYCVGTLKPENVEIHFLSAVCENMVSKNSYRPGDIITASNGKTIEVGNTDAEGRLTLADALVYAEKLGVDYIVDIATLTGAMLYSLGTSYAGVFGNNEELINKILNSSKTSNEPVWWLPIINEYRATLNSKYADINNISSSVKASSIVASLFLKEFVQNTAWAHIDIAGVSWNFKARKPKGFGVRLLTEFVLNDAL

Procathepsin L = Procathepsin L (Homo sapiens, UniProt P07711); test: cathepsin L inhibitors, dose response, counter-screen for M1/M17 aminopeptidase inhibitor project, biochemical, QFRET, 1536-well (AID 2214)
Aspartyl aminopeptidase = Aspartyl aminopeptidase (Plasmodium falciparum 3D7, UniProt Q8I2J3); test: Counterscreen for inhibitors of M1 and M17 aminopeptidases: QFRET-based biochemical high throughput dose response assay for inhibitors of the Plasmodium falciparum M18 Aspartyl Aminopeptidase (PFM18AAP). [Related PubChem assays: 1619 (Screening assay (M17LAP inhibitors).), 1445 (Screening assay (M1AAP inhibitors).)]
[19] = biological target: T10, Short transient receptor potential channel 4 (Mus musculus, UniProt Q9QUQ5); test: mouse TRPC4 channel inhibitors, dose response, cell-based, HEK293 TRPC4/mu-opioid, Fluo-4 calcium (AID 434942); type: functional;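 further: potency of inhibitors blocking the TRPC4 calcium response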
T10 sequence (Q9QUQ5 whole entry): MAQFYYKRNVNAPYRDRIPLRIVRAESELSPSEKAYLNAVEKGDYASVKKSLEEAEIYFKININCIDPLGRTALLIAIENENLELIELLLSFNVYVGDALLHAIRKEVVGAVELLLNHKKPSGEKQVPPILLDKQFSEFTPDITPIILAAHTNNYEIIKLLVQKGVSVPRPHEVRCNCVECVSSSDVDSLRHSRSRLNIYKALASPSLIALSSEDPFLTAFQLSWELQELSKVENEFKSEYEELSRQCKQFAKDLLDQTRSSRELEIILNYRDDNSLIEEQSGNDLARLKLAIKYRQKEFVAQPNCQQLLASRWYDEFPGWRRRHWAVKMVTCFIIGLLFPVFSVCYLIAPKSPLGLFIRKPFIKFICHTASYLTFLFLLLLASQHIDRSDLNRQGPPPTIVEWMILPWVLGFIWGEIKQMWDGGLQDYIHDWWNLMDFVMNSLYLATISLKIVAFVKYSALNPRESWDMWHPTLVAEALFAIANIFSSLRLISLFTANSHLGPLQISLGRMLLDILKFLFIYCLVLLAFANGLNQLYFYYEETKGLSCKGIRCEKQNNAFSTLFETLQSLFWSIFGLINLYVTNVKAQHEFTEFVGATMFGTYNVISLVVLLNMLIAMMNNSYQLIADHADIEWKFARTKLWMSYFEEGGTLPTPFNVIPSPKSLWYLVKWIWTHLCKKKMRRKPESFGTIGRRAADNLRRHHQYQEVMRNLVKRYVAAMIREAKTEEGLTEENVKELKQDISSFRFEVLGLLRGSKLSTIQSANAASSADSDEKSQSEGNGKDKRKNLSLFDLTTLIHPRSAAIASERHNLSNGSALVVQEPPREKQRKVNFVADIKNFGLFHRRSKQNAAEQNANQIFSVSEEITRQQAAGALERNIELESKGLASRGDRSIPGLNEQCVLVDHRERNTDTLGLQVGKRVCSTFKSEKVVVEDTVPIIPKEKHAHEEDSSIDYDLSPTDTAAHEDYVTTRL

COc1ccc(C(=O)Nc2nc(O)c3cc(OC)c(OC)cc3n2)cc1
EC50 (Estrogen receptor): 13.3 µM (not active)

COc1ccc(OC)c(Nc2nc(-c3ccc(O)c(O)c3)cs2)c1
IC50 (Protein Tat): > 100 µM (inconclusive)
IC50 [1]: > 50 µM (not active)
CC50 [2]: 9.32 µM (active)
EC50 [3]: 6.89 µM (active)

CCCCC1CCC(C(=O)NCC(c2ccco2)N2CCOCC2)CC1 (stereo not drawn)
EC50 [4]: 0.92 µM (active)

CC(=O)Nc1ccc(SCC(=O)c2cc(C)n(Cc3ccccc3)c2C)cc1
EC50 [5]: > 30 µM (not active)

Cc1ccc(C)n1-c1ccc(OCC(=O)O)cc1
EC50 (Bcl-2-like protein 10 [6]): 8.75 µM (active)
IC50 (NS3): 36 µM (inactive)

CCCCOc1cccc(OCCCC)c1C(=O)Nc1cc(C)on1
IC50 [7]: > 35 µM (not active)
IC50 [8]: 4.03 µM (active)
IC50 [9]: > 35 µM (not active)

O=C(Nc1ccc(N2CCCCC2)c(Cl)c1)c1cccnc1
IC50 (Vero): 8.75 µM (active)
CC50 [10]: 15.4 µM (active)
EC50 [11]: > 120 µM (not active)
EC50 (H4): > 120 µM (not active)
EC50 [12]: 6.12 µM (active)
IC50 (cells): 13.6 µM (active)

COc1ccc(NC(=O)CSc2nc3ccccc3c(=O)n2CCCN2CCCCC2)c(OC)c1
IC50 [13]: 7.62 µM (active)
IC50 [14]: 14.7 µM (not active)

O=C(Nc1ccc2nc(-c3ccco3)c(-c3ccco3)nc2c1)N1CCCCCC1
IC50 [15]: > 100 µM (not active)
IC50 (Bcl-2-like protein 10 [16]): 0.725 µM (active)
IC50 [17]: 1.03 µM (active) and 1.85 µM (active)
IC50 [18]: > 100 µM (not active)

N#Cc1c(NC(=O)C2CC(Cl)=CCC2C(=O)O)sc2c1CCCCC2 (stereo not drawn)
IC50 (Leucine aminopeptidase): < 1 µM (active)
IC50 (Procathepsin L): > 59.6 µM (not active)
IC50 (Aspartyl aminopeptidase): > 73.5 µM (not active)
EC50 [19]: 4.73 µM (active)
